Data: patent publication US11672787B2, “Compounds as mPGES-1 inhibitors” (Khondrion IP B.V., priority 2017, dated 2023)
Where a name gives a salt, the structure may show the parent alone.

Columns and labels:
mPGES-1 = target: T1, mPGES-1 (Mus musculus, UniProt Q9JM51); assay: Microsomal PGES activity: conversion of PGH2 to PGE2 by microsomal fractions of LPS-treated RAW 264.7 cells; format: biochemical, murine; conditions: for IC50: microsomal fraction of RAW 264.7 cells treated 24 hours with LPS 1 μg/mL, conversion of PGH2 to PGE2, read-out: IC50 (inhibition of mPGES-1 enzyme activity); for mPGES-1 activity in purified microsomes: 30 minutes
T1 construct: endogenous in cells; host or cells: RAW 264.7 cells treated 24 h with 1 ug/mL LPS; 100,000 g microsomal pellet
T1 sequence (Q9JM51 1-153): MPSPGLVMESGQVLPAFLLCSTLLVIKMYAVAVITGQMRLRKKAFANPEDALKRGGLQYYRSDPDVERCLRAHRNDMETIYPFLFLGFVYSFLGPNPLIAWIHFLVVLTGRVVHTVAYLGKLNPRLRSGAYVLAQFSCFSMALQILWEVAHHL
Description: FIG. 6. mPGES-1 activity was assayed as conversion of PGH2 to PGE2 by microsomal fractions of RAW 264.7 cells treated for 24 hours with LPS 1 μg/mL to increase mPGES-1 expression. The microsomal fraction was exposed to increasing concentrations of compound to be tested, or 3 μM of know mPGES-1 inhibitors MK866 or PF9184 as positive controls. PGE2 level was normalized on the vehicle treated microsomal samples (100%). (A) compound I-IVb-X; (B) compound I-IVb-AE; (C) compound I-IVb-A-HCl; (D) compound I-IVb-I.
PGES activity was measured by assessment of the conversion of PGH2 to PGE2. In brief, after 24 hours incubation with 1 μg/mL LPS the cells were harvested and lysed by sonication (three times for 10 seconds each, at 1 min intervals) in 300 μl of 1 M Tris-HCl (pH 8.0). After centrifugation of the lysate at 12,000 g for 10 min at 4° C., the supernatant was collected and further centrifuged at 100,000 g for 1 h at 4° C. The pellets (microsomal membranes) were resuspended in 100 μl of 0.1M Tris-HCl, pH 8.0, containing protease inhibitors) and subjected to measurement of microsomal PGES activity. For measurement of PGES activity, an aliquot of each sample equivalent to 50 μg of protein was incubated with 2 μg of PGH2 for 60 s at 24° C. in 0.1 ml of 1 M Tris-HCl containing 2 mM glutathione (Sigma-Aldrich) and 14 μM indomethacin, in the absence or presence of the tested compounds. The reaction was terminated by the addition of 100 mM FeCl2, and further incubated at 20-25° C. for 15 min. After centrifugation of the reaction mixture, the PGE2 concentration in the supernatant was measured with the PGE2 high sensitivity EIA kit (Enzo Life Science) according to manufacturer's instructions.
RAW 264.7 macrophage cells were treated with the inflammatory stimulus LPS to increase the expression of mPGES-1. After 24 hours incubation the microsomes were isolated and exposed to increasing concentration of compound I-IVb-X or a single concentration of previously described mPGES-1 inhibitors MK866 and PF9184 for 30 minutes. The activity of mPGES-1 was then assayed in the microsomes fraction as the conversion of PGH2 to PGE2.
Using the methods as described in Example 1, additional compounds were tested. Table 1 provides an overview of the compounds that were tested, along with corresponding IC50 values. FIGS. 6B, 6C, and 6D show corresponding inhibition curves for I-IVb-AE, I-IVb-A-HCl, and I-IVb-I, respectively.

[1] = tested on: human primary skin fibroblasts; assay: Prostaglandin levels (ELISA) in supernatant of LPS- or IL-1β-stimulated human primary skin fibroblasts; format: cell-based; conditions: 24 hours
Description: FIG. 3. (A-B) Levels of PGE2 (A) and PGD2 (B) in supernatant of human primary skin fibroblasts exposed for 24 hours to vehicle, 1 μg/mL LPS or 1 μg/mL Interleukin-1β (IL-1β), normalized on vehicle. (C-D) Levels of PGE2 and PGD2 in supernatant of human primary skin fibroblasts exposed for 24 hours to 1 μg/mL LPS (C) or 1 μg/mL IL-1β (D) alone (set as 100%) or in combination with increasing concentrations of compound I-IVb-X (indicated as KH).
The cells were maintained in M199, HEPES (Thermo Fischer Scientific) containing 10% FBS (#758093, Greiner Bio-one), 100 IU/ml penicillin and 100 μg/ml streptomycin (#30-002-CI, Corning) under a humidified atmosphere of 5% CO2 at 37° C. The cells were passaged by trypsinization every 4-5 days until they reached the passage number 20, and then discarded. The cells were grown to 80% confluence, trypsinized and then cultured in 96-well plates (4×10^3 cells/well) 24 hours before an experiment.
The concentration of the PGE2, PGD2 and 6-keto-PGF1α in culture medium was determined by Enzyme-Linked Immuno Sorbent Assay (ELISA) using, respectively, the PGE2 high sensitivity EIA kit (Enzo Life Science), the Prostaglandin D2-MOX ELISA Kit (Cayman Chemicals) and the 6-keto Prostaglandin F1α ELISA Kit (Cayman Chemicals), according to the manufacturer's instructions. […]

[2] = tested on: RAW 264.7 murine macrophage cells; assay: Prostaglandin levels (ELISA) in supernatant of LPS-stimulated RAW 264.7 cells; format: cell-based; conditions: 1 μg/mL LPS, 24 hours, increasing concentrations
Description: FIG. 2. (A-C) Levels of prostaglandins (PG) PGE2 (A), PGD2 (B) and 6-keto PGF1a (C) in supernatant of RAW 264.7 murine macrophage cells exposed for 24 hours to vehicle or 1 μg/mL lipopolysaccharide (LPS), normalized on vehicle. (D-F) Levels of PGE2, PGD2 and 6-keto PGF1a in supernatant of RAW 264.7 murine macrophage cells exposed for 24 hours to vehicle or 1 μg/mL LPS, alone (set as 100%) or in combination with increasing concentrations of compound I-IVb-X (a compound of general structure (I) wherein T is of general structure (IVb), in the S,R-configuration, and wherein as per compound X the following apply: L=L^19; R^1═H; R^2—R^2′=L^3; R^3═H; indicated as KH) (D), non-selective COX inhibitor indomethacin (E) or COX-2 inhibitor celecoxib (F).
RAW264.7 cells (Sigma-Aldrich, St-Louis) were maintained in DMEM (Thermo Fisher Scientific) containing 10% FBS (Greiner Bio-one), and antibiotics (100 U/ml penicillin, 100 μg/ml streptomycin) under a humidified atmosphere of 5% CO2 at 37° C. The cells were grown to 80% confluence, scraped and then cultured in either 96-well plates (2×10^4 cells/well) or six-well plates (4×10^5 cells/well) for 6-24 hours before an experiment.
The concentration of the PGE2, PGD2 and 6-keto-PGF1α in culture medium was determined by Enzyme-Linked Immuno Sorbent Assay (ELISA) using, respectively, the PGE2 high sensitivity EIA kit (Enzo Life Science), the Prostaglandin D2-MOX ELISA Kit (Cayman Chemicals) and the 6-keto Prostaglandin F1α ELISA Kit (Cayman Chemicals), according to the manufacturer's instructions. Samples (100 μl) of culture medium from each well were harvested and diluted with the assay buffer.
RAW 264.7 macrophage cells were treated with the inflammatory stimulus LPS alone or in combination with increasing concentrations of compound I-IVb-X (a compound of general structure (I) wherein T is of general structure (IVb), in the S,R-configuration, and wherein as per compound X the following apply: L=L^19; R^1═H; R^2—R^2′=L^3; R^3═H), the NSAID indomethacin or the Coxib Celecoxib. After 24 hours incubation the levels of PGE2, PGD2 and 6-keto PGF1a were quantified in the cell supernatant by ELISA. […] Similar results were obtained with compound I-IVb-X in human primary skin fibroblasts.

[3] = single concentration (3 μM), positive controls

CC1=C(C)C(=O)C(CC[C@](C)(O)C(=O)N2CCNCC2)=C(C)C1=O [I-IVb-A-HCl]
IC50 (mPGES-1): 1020 nM

CC1=C(C)C(=O)C(CC[C@](C)(O)C(=O)N2CCC(NC(=O)[C@H](C)N)CC2)=C(C)C1=O [I-IVb-AB-HCl]
IC50 (mPGES-1): 238 nM

CC1=C(C)C(=O)C(CC[C@](C)(O)C(=O)N[C@H]2CC[C@H](N)CC2)=C(C)C1=O [I-IVb-AE]
IC50 (mPGES-1): 18 nM

CC1=C(C)C(=O)C(CC[C@](C)(O)C(=O)N[C@H]2CN3CCC2CC3)=C(C)C1=O [I-IVb-AI-HCl]
IC50 (mPGES-1): 726 nM

CC1=C(C)C(=O)C(CC[C@](C)(O)C(=O)Nc2ccc(CN)cc2)=C(C)C1=O [I-IVb-AJ-HCl]
IC50 (mPGES-1): 1050 nM

CC1=C(C)C(=O)C(CCC(C)(O)C(=O)NCCN(C)C)=C(C)C1=O (stereo not shown) [I-IVb-I]
IC50 (mPGES-1): 1120 nM

CC1=C(C)C(=O)C(CCC(C)(O)C(=O)N[C@@H](CCCN)C(=O)O)=C(C)C1=O (stereo partly shown) [I-IVb-N]
IC50 (mPGES-1): 10.4 nM

CC1=C(C)C(=O)C(CC[C@](C)(O)C(=O)N[C@@H]2CCCNC2)=C(C)C1=O [I-IVb-X]
level of PGE2 in supernatant ([1]; 1 μg/mL IL-1β): efficiently reduce
level of PGE2 in supernatant ([1]; 1 μg/mL LPS): efficiently reduce
mPGES-1 activity in purified microsomes (mPGES-1; increasing concentration of compound): decreased
IC50 (mPGES-1): 458 nM
level of 6-keto PGF1a in cell supernatant [2]: no effect
level of PGD2 in cell supernatant [2]: no effect
level of PGE2 in cell supernatant [2]: dose-dependently reduce

CC(C)c1ccc2c(c1)c(SC(C)(C)C)c(CC(C)(C)C(=O)O)n2Cc1ccc(Cl)cc1 [MK866, reference compound]
mPGES-1 activity in purified microsomes (mPGES-1; [3]): decreased

O=C(Nc1ccc(-c2ccc(Cl)c(Cl)c2)cc1)C1=C(O)c2ccccc2S(=O)(=O)N1 [PF9184, reference compound]
mPGES-1 activity in purified microsomes (mPGES-1; [3]): decreased

COc1ccc2c(c1)c(CC(=O)O)c(C)n2C(=O)c1ccc(Cl)cc1 [indomethacin, reference compound]
level of 6-keto PGF1a in cell supernatant [2]: dose-dependently reduced
level of PGD2 in cell supernatant [2]: dose-dependently reduced
level of PGE2 in cell supernatant [2]: dose-dependently reduced
